Source: patent US20100152434A1, “Protein Kinase-binding Nucleosides and Associated Methods” (priority 2007, published 2010)
Where two headings read alike, the source gives them in different places.

Assays:
HS 578T [1] = system: HS 578T
cells = settings: Homo sapiens
[2] = system: 60 different human tumor cell lines (the NCI 60); test: cells; settings: read-out: LC50 value for each cell line
SK-MEL-28 [3] = test: cells; settings: Homo sapiens
[4] = system: 60 different human tumor cell lines (the NCI 60); settings: CCRF-CEM, HL-60(TB), K-562, MOLT-4, RPMI-8226, SR, A549/ATCC, NCI-H460, HCT-116, HCT-15, HT29, SF-268, SF-295, U251, LOX IMVI, SK-MEL-28, SK-MEL-5, IGROV1, OVCAR-3, OVCAR-8, A498, RXF393, MCF7, HS578T
HS 578T [5] = test: cells; settings: Homo sapiens; for CC50: read-out: LC50
CDK3 = CDK3 (Homo sapiens, UniProt Q00526); test: Ambit kinase phage display ATP-binding-site ligand binding assay; settings: read-out: percent inhibition of binding
Source text: (§1) This assay is based on ligand-affinity/protein kinase phage display and was employed essentially as described by Fabian et. al [Nature Biotech. […] In this assay, protein kinases are cloned into T7 bacteriophage which express the kinase fusion proteins on the phage capsid. T7 kinase-tagged phage are then screened for binding to ATP-binding-site ligands that have been immobilized on a solid support. Phage are screened for binding to the anchored ligands both in the presence of test compound and in its absence (control). Elution of the bound phage by free ligand (ATP-binding site ligand that is not immobilized on a solid support) followed by determination of the phage titre provides a reliable measure of the ability of test compounds to block binding of target kinases to resin-bound ATP-binding-site ligands.
(§2) T7 kinase-tagged phage strains were grown in parallel in microtiter plates in a proprietary bacterial host derived from E. Coli strain BL21. E. Coli were grown to a log phase, infected with T7 kinase-tagged phage, and incubated while shaking at 32° C. until bacterial lysis (approx. 90 min). Lysates were centrifuged (6,000 g) and filtered (0.2 μm). […] The phage titre of the eluates was measured by quantitative PCR or by plaque assays. […]

EGFR = EGFR (Homo sapiens, UniProt P00533); test: as above; settings: read-out: % Inhibition of binding to ATP-binding-site ligand
Source text: as §1, §2

FLT3 = FLT3 (Homo sapiens, UniProt P36888); test: as above; settings: read-out: % Inhibition of binding to ATP-binding-site ligand
Source text: as §1, §2

SK-MEL-28 [6] = system: SK-MEL-28
SW-620 [7] = test: cells; settings: Homo sapiens
MOLT-4 [8] = test: cells; settings: Homo sapiens
AURKB = AURKB (Homo sapiens, UniProt Q96GD4); test: Ambit kinase phage display ATP-binding-site ligand binding assay; settings: read-out: percent inhibition of binding
Source text: (§3) In this assay, protein kinases are cloned into T7 bacteriophage which express the kinase fusion proteins on the phage capsid. T7 kinase-tagged phage are then screened for binding to ATP-binding-site ligands that have been immobilized on a solid support. Phage are screened for binding to the anchored ligands both in the presence of test compound and in its absence (control). Elution of the bound phage by free ligand (ATP-binding site ligand that is not immobilized on a solid support) followed by determination of the phage titre provides a reliable measure of the ability of test compounds to block binding of target kinases to resin-bound ATP-binding-site ligands.
(§4) T7 kinase-tagged phage strains were grown in parallel in microtiter plates in a proprietary bacterial host derived from E. Coli strain BL21. E. Coli were grown to a log phase, infected with T7 kinase-tagged phage, and incubated while shaking at 32° C. until bacterial lysis (approx. 90 min). Lysates were centrifuged (6,000 g) and filtered (0.2 μm). Small molecule ATP-binding-site-specific ligands were anchored to solid supports via a two step process beginning with biotin conjugation followed by treatment of the biotin/small molecule conjugate with streptavidin-coated magnetic beads. […] The phage titre of the eluates was measured by quantitative PCR or by plaque assays. […]

PAK3 = PAK3 (Homo sapiens, UniProt O75914); test: as above; settings: read-out: % Inhibition of binding to ATP-binding-site ligand
Source text: as §1, §2

MOLT-4 [9] = system: MOLT-4
TYK2(Kin.Dom.1) = TYK2(Kin.Dom.1) (Homo sapiens, UniProt P29597); test: Ambit kinase phage display ATP-binding-site ligand binding assay; settings: read-out: percent inhibition of binding
Source text: as §3, §4

SR = test: cells; settings: Homo sapiens; for CC50: read-out: LC50
CAMKK2 = CAMKK2 (Homo sapiens, UniProt Q96RR4); test: Ambit kinase phage display ATP-binding-site ligand binding assay; settings: read-out: percent inhibition of binding
Source text: as §3, §4

PC-3 = test: cells; settings: Homo sapiens
CSF1R = CSF1R (Homo sapiens, UniProt P07333); test: Ambit kinase phage display ATP-binding-site ligand binding assay; settings: read-out: percent inhibition of binding
Source text: as §1, §2

SW-620 [10] = system: SW-620
MINK = MINK (Homo sapiens, UniProt Q8N4C8); test: Ambit kinase phage display ATP-binding-site ligand binding assay; settings: read-out: percent inhibition of binding
Source text: as §1, §2

MDA-MB-468 = test: NCI 60 in vitro screen (SRB), Breast Cancer; format: cell-based, human
Method: Mean ODtzero=The average of optical density measurements SRB-derived color just before exposure of cells to the test compound. Mean ODtest=The average of optical density measurement of SRB-derived color after 48 hours exposure of cells to the test compound. Mean ODctrl=The average of optical density measurements of SRB-derived color after 48 hours with no exposure of cells to the test compound.

[11] = Log10 Concentration −4.0, Molar
[12] = Log10 Concentration −5.0, Molar
[13] = Log10 Concentration −6.0, Molar
[14] = Log10 Concentration −7.0, Molar
[15] = Log10 Concentration −8.0, Molar

Sequence of FLT3 (P36888 27-993, species assumed): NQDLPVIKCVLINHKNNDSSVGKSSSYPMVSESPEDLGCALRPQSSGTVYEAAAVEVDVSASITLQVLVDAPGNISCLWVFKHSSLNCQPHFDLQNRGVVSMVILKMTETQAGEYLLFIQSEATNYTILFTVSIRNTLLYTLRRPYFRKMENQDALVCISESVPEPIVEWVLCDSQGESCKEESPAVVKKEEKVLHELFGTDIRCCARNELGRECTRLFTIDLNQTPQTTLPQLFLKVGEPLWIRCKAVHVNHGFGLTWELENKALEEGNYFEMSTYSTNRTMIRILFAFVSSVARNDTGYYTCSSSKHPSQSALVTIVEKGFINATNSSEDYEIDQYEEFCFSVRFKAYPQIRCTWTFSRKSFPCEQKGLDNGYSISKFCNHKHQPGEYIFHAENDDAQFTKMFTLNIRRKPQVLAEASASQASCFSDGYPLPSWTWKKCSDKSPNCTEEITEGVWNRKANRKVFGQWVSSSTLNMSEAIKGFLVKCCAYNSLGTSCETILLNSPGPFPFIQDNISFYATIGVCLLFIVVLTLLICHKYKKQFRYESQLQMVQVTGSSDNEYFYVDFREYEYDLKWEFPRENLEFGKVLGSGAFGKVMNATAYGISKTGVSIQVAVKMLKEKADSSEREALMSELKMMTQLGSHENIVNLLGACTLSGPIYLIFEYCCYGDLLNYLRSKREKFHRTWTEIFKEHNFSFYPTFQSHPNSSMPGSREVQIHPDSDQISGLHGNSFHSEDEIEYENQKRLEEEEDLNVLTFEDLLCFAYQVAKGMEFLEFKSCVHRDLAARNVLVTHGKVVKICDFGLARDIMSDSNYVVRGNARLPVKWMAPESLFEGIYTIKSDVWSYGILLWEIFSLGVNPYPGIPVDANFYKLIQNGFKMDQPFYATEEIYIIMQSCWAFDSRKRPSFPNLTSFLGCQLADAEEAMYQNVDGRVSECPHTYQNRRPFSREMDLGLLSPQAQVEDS
Sequence of MINK (Q8N4C8 whole entry): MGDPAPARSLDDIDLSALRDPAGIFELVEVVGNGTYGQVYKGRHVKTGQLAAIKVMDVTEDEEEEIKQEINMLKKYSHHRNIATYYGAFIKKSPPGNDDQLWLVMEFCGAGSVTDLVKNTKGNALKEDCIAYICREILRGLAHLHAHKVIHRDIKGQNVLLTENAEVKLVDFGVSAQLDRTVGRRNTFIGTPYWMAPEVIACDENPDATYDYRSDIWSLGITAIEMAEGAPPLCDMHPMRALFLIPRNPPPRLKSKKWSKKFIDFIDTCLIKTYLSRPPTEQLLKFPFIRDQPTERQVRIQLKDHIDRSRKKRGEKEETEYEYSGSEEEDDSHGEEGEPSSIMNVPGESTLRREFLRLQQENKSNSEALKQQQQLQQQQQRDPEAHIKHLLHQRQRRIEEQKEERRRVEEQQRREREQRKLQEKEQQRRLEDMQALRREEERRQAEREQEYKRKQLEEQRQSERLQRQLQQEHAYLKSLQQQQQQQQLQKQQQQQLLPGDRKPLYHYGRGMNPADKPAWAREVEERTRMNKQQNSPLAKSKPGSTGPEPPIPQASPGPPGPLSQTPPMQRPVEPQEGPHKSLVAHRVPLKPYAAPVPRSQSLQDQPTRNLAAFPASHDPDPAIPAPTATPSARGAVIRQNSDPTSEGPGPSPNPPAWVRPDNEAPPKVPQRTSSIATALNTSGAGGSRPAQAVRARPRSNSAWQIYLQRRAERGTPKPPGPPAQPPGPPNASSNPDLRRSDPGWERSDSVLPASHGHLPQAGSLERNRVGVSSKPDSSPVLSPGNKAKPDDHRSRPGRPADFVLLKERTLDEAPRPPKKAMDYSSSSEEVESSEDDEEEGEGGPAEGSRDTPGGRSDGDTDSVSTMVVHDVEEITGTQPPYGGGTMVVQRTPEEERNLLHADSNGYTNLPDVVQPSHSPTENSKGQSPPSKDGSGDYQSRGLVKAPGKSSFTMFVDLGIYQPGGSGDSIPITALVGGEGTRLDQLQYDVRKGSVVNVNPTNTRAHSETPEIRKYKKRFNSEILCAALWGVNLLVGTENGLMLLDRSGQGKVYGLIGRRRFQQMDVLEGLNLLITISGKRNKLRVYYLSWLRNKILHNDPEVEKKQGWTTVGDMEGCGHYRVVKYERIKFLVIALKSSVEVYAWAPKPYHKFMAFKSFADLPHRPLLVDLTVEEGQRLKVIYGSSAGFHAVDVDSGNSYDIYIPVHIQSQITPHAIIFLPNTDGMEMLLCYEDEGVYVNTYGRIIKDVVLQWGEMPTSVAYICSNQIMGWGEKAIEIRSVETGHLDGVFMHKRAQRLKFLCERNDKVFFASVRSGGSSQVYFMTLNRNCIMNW
Sequence of PAK3 (O75914 whole entry, species assumed): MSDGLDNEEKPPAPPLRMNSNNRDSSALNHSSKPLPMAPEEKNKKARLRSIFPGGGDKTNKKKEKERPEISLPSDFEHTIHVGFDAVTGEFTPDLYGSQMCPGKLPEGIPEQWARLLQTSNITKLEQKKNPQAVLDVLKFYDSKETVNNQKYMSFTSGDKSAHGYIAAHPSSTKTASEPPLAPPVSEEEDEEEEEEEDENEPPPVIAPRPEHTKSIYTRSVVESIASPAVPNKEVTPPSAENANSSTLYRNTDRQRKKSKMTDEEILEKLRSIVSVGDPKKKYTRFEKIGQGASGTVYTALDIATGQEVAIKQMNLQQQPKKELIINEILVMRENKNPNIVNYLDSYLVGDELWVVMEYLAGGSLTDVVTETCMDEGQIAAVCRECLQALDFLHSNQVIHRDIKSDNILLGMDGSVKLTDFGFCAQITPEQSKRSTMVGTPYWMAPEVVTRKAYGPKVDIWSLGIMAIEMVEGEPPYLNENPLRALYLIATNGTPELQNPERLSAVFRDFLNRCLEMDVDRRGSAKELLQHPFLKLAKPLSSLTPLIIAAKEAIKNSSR
Sequence of AURKB (Q96GD4 whole entry): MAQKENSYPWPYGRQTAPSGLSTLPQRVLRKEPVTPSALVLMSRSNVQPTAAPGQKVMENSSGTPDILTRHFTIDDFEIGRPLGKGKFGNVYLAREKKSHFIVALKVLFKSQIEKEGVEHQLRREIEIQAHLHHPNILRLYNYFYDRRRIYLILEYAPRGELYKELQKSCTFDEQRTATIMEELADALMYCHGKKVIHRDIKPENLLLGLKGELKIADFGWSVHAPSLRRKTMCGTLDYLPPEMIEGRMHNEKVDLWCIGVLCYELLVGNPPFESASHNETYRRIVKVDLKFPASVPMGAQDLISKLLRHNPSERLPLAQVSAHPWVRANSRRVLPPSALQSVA
Sequence of EGFR (P00533 25-1210): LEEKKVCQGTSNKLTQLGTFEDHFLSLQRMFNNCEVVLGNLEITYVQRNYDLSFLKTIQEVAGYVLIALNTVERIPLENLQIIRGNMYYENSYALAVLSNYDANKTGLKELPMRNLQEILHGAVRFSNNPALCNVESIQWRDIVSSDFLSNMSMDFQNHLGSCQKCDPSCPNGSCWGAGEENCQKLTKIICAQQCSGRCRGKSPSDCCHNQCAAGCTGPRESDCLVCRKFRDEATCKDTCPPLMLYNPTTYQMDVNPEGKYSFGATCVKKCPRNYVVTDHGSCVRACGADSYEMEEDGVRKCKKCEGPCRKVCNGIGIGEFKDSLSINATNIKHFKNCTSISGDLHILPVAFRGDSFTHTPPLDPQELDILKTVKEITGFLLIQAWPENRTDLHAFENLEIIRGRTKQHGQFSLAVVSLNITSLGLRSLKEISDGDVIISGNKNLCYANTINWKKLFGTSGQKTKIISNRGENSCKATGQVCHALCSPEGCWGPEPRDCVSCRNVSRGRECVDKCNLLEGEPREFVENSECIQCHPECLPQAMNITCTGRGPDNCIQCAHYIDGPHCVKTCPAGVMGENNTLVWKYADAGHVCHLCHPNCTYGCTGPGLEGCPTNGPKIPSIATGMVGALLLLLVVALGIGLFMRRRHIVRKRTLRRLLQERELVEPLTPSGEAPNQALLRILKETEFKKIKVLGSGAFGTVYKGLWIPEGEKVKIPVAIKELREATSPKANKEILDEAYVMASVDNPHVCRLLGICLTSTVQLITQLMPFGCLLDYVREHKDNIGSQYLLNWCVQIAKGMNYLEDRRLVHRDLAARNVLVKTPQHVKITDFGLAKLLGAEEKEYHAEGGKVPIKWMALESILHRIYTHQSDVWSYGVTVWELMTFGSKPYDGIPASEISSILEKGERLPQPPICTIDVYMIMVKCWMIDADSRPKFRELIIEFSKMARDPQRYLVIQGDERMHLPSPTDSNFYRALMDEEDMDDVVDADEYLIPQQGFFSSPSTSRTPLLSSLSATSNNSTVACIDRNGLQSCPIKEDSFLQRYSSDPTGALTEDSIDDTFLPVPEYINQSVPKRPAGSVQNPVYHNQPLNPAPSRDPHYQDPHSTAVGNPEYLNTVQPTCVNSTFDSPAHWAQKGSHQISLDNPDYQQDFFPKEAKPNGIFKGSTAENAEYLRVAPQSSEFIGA
Sequence of CAMKK2 (Q96RR4 whole entry): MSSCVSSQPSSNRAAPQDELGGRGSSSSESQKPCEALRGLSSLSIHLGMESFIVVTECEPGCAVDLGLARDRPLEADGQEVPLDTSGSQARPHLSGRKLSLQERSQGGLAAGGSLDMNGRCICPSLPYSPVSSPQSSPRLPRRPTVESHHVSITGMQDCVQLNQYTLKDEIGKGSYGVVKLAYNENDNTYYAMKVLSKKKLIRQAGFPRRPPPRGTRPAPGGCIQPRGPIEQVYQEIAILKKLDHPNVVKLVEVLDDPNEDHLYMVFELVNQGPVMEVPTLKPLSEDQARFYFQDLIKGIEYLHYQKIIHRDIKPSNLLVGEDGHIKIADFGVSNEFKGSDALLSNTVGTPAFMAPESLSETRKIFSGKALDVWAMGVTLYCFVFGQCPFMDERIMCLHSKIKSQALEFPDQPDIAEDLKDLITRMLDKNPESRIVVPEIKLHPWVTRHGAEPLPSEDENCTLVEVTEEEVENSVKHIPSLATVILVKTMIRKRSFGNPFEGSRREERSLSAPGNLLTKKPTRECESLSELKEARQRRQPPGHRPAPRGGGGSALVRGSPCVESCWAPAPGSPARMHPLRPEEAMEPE

## CCOC(=O)C[C@@H]1C(O[Si](C)(C)C(C)(C)C)[C@H](n2cnc3c(NC(=O)Nc4ccccc4)ncnc32)O[C@@H]1CNC(=O)NC (stereo partly shown) [Compound 10]
HS 578T [1]; 48 h
  TGI: 5.36E−5 Molar
HS 578T [1]; [11]
  Percent Growth: −7%
HS 578T [1]; [12]
  Percent Growth: 18%
HS 578T [1]; [13]
  Percent Growth: 90%
HS 578T [1]; [14]
  Percent Growth: 95%
HS 578T [1]; [15]
  Percent Growth: 94%
cells; 48 h, read-out: LC50
  CC50: 17.9 µM
[2]
  CC50: > 100 µM
SK-MEL-28 [3]; SK-MEL-28, 48 h
  GI50: 6.85 µM
SK-MEL-28 [3]; SK-MEL-28, 48 h, read-out: LC50
  CC50: 48.7 µM
HL-60(TB); [11]
  Percent Growth: 22%
HL-60(TB); [12]
  Percent Growth: −5%
HL-60(TB); [13]
  Percent Growth: 101%
HL-60(TB); [14]
  Percent Growth: 110%
HL-60(TB); [15]
  Percent Growth: 85%
[4]; HOP-62, NCI-H522, COLO 205, KM12, SW-620, SF-539, SNB-75, M14, SK-MEL-2, UACC-257, 786-0, ACHN, SN12C, PC-3, DU-145, MDA-MB-231/ATCC, MDA-MB-435, T-47D
  GI50 values (potent anticancer activities): low micromolar
HS 578T [5]; 48 h
  GI50: 3.6 µM
  CC50: > 100 µM
CDK3
  inhibition at 10 µM: 20 to 29%
EGFR
  inhibition at 10 µM: 30%
FLT3
  inhibition at 10 µM: 31%
SK-MEL-28 [6]; 48 h
  TGI: 2.02E−5 Molar
SK-MEL-28 [6]; [11]
  Percent Growth: −91%
SK-MEL-28 [6]; [12]
  Percent Growth: 40%
SK-MEL-28 [6]; [13]
  Percent Growth: 100%
SK-MEL-28 [6]; [14]
  Percent Growth: 106%
SK-MEL-28 [6]; [15]
  Percent Growth: 104%
SW-620 [7]; SW-620, 48 h
  GI50: 4.8 µM
SW-620 [7]; SW-620, 48 h, read-out: LC50
  CC50: > 100 µM
MOLT-4 [8]; MOLT-4, 48 h
  GI50: 2.39 µM
MOLT-4 [8]; MOLT-4, 48 h, read-out: LC50
  CC50: > 100 µM
AURKB
  inhibition at 10 µM: 20 to 29%
PAK3
  inhibition at 10 µM: 33%
MOLT-4 [9]; 48 h
  TGI: 2.33E−5 Molar
MOLT-4 [9]; [11]
  Percent Growth: −14%
MOLT-4 [9]; [12]
  Percent Growth: 8%
MOLT-4 [9]; [13]
  Percent Growth: 76%
MOLT-4 [9]; [14]
  Percent Growth: 84%
MOLT-4 [9]; [15]
  Percent Growth: 93%
TYK2(Kin.Dom.1)
  inhibition at 10 µM: 20 to 29%
SR; 48 h
  GI50: 2.23 µM
  CC50: > 100 µM
CAMKK2
  inhibition at 10 µM: 20 to 29%
PC-3; PC-3, 48 h
  GI50: 2.25 µM
PC-3; PC-3, 48 h, read-out: LC50
  CC50: 12.5 µM
CSF1R
  inhibition at 10 µM: 20 to 29%
SW-620 [10]; 48 h
  TGI: 2.84E−5 Molar
SW-620 [10]; [11]
  Percent Growth: −33%
SW-620 [10]; [12]
  Percent Growth: 28%
SW-620 [10]; [13]
  Percent Growth: 97%
SW-620 [10]; [14]
  Percent Growth: 94%
SW-620 [10]; [15]
  Percent Growth: 97%
K-562; 48 h
  TGI: 3.29E−5 Molar
K-562; [11]
  Percent Growth: −17%
K-562; [12]
  Percent Growth: 19%
K-562; [13]
  Percent Growth: 89%
K-562; [14]
  Percent Growth: 93%
K-562; [15]
  Percent Growth: 96%
MINK
  inhibition at 10 µM: 20 to 29%

## CNC(=O)NC[C@H]1O[C@@H](n2cnc3c(NC(=O)Nc4ccccc4)ncnc32)[C@H](O[Si](C)(C)C(C)(C)C)[C@@H]1CC(=O)N(C)OC [Compound 13, 2′-O-(tert-Butyldimethylsilyl)-3′,5′-dideoxy-3′-[(N-methoxy-N-methylcarboxamido)methyl]-5′-[(N-methylcarbamoyl)amino]-N^6-(N-phenylcarbamoyl)adenosine]
HS 578T [1]
  TGI: >1.00E−4 Molar
HS 578T [1]; Log10 Concentration −4.0
  Percent Growth: 12%
HS 578T [1]; Log10 Concentration −5.0
  Percent Growth: 40%
HS 578T [1]; Log10 Concentration −6.0
  Percent Growth: 82%
HS 578T [1]; Log10 Concentration −7.0
  Percent Growth: 98%
HS 578T [1]; Log10 Concentration −8.0
  Percent Growth: 98%
cells; 786-0, read-out: LC50
  CC50: > 100 µM
[2]
  CC50: > 100 µM
SK-MEL-28 [3]; SK-MEL-28
  GI50: 7.77 µM
SK-MEL-28 [3]; SK-MEL-28, read-out: LC50
  CC50: > 100 µM
HL-60(TB)
  TGI: 4.34E−6 Molar
HL-60(TB); Log10 Concentration −4.0
  Percent Growth: −58%
HL-60(TB); Log10 Concentration −5.0
  Percent Growth: −48%
HL-60(TB); Log10 Concentration −6.0
  Percent Growth: 84%
HL-60(TB); Log10 Concentration −7.0
  Percent Growth: 86%
HL-60(TB); Log10 Concentration −8.0
  Percent Growth: 95%
[4]; HOP-92
  GI50 values (potent anticancer activities): low micromolar
HS 578T [5]
  GI50: 5.79 µM
  CC50: > 100 µM
SK-MEL-28 [6]
  TGI: >1.00E−4 Molar
SK-MEL-28 [6]; Log10 Concentration −4.0
  Percent Growth: 27%
SK-MEL-28 [6]; Log10 Concentration −5.0
  Percent Growth: 44%
SK-MEL-28 [6]; Log10 Concentration −6.0
  Percent Growth: 101%
SK-MEL-28 [6]; Log10 Concentration −7.0
  Percent Growth: 106%
SK-MEL-28 [6]; Log10 Concentration −8.0
  Percent Growth: 97%
SW-620 [7]; SW-620
  GI50: > 100 µM
SW-620 [7]; SW-620, read-out: LC50
  CC50: > 100 µM
MOLT-4 [8]; MOLT-4
  GI50: 2.23 µM
MOLT-4 [8]; MOLT-4, read-out: LC50
  CC50: > 100 µM
MOLT-4 [9]
  TGI: 9.36E−6 Molar
MOLT-4 [9]; Log10 Concentration −4.0
  Percent Growth: −5%
MOLT-4 [9]; Log10 Concentration −5.0
  Percent Growth: −2%
MOLT-4 [9]; Log10 Concentration −6.0
  Percent Growth: 78%
MOLT-4 [9]; Log10 Concentration −7.0
  Percent Growth: 90%
MOLT-4 [9]; Log10 Concentration −8.0
  Percent Growth: 96%
SR
  GI50: 1.27 µM
  CC50: 9.43 µM
SW-620 [10]
  TGI: >1.00E−4 Molar
SW-620 [10]; Log10 Concentration −4.0
  Percent Growth: 50%
SW-620 [10]; Log10 Concentration −5.0
  Percent Growth: 65%
SW-620 [10]; Log10 Concentration −6.0
  Percent Growth: 93%
SW-620 [10]; Log10 Concentration −7.0
  Percent Growth: 102%
SW-620 [10]; Log10 Concentration −8.0
  Percent Growth: 99%
K-562
  TGI: >1.00E−4 Molar
K-562; Log10 Concentration −4.0
  Percent Growth: 24%
K-562; Log10 Concentration −5.0
  Percent Growth: 17%
K-562; Log10 Concentration −6.0
  Percent Growth: 82%
K-562; Log10 Concentration −7.0
  Percent Growth: 95%
K-562; Log10 Concentration −8.0
  Percent Growth: 95%

## CNC(=O)NC[C@H]1O[C@@H](n2cnc3c(NC(=O)Nc4ccccc4)ncnc32)C(O[Si](C)(C)C(C)(C)C)[C@H]1O[Si](C)(C)C(C)(C)C (stereo partly shown) [Compound 25, 2′,3′-Bis-O-(tert-butyldimethylsilyl)-5-deoxy-5′-[(N-methylcarbamoyl)amino]-N^6-(N-phenylcarbamoyl)adenosine]
PC-3; PC-3
  GI50: 2.69 µM
  IC50: > 100 µM
MDA-MB-468
  TGI: 1.39E−5 Molar
MDA-MB-468; Homo sapiens
  GI50: 3.35 µM
  IC50: > 100 µM
MDA-MB-468; Log10 Concentration −4.0 Molar
  Percent Growth: −35%
MDA-MB-468; Log10 Concentration −5.0 Molar
  Percent Growth: 5%
MDA-MB-468; Log10 Concentration −6.0 Molar
  Percent Growth: 99%
MDA-MB-468; Log10 Concentration −7.0 Molar
  Percent Growth: 104%
MDA-MB-468; Log10 Concentration −8.0 Molar
  Percent Growth: 101%
